Assay results from ChEMBL document CHEMBL3124768, “Substituted imidazothiazoles as inhibitors of viral polymerase” (ACS Med Chem Lett, 2014).

Key:
[1] = Inhibition of HCV genotype 1b isolate BK truncated NS5B polymerase lacking C-terminal 21 amino acids assessed as inhibition of 33P-GTP incorporation using Poly(rC) template by scintillation counting analysis; set-up: species or system Hepatitis C virus (isolate BK)
Hepatitis C virus = experiment: Antiviral activity against Hepatitis C virus genotype 1b isolate Con1 assessed as inhibition of HCV replicon-encoded Renilla luciferase reporter activity after 72 hrs by cell-based replicon assay; format: functional, organism-based, Hepacivirus hominis; conditions: isolate Con1, 72 h

IC50 [1] | EC50 (Hepatitis C virus) | SMILES
< 250 nM | < 250 nM | CNC(=O)c1c(-c2ccc(F)cc2)nc2sc(-c3cc(C(=O)NC(C)(C)c4ccccc4)ccc3C)cn12
< 250 nM | < 250 nM | CNC(=O)c1c(-c2ccc(F)cc2)nc2sc(-c3cc(C(=O)N[C@@H](C)c4ccccc4)ccc3C)cn12
1000 nM | < 250 nM | CNC(=O)c1c(-c2ccc(F)cc2)nc2sc(-c3cc(C(=O)NC(C)(C)C(=O)OC)ccc3C)cn12
1000 nM | < 250 nM | CNC(=O)c1c(-c2ccc(F)cc2)nc2sc(-c3cc(C(=O)NC4(C(C)C)CC4)ccc3C)cn12

The next lines start with the compound.

SMILES | IC50 [1] | EC50 (Hepatitis C virus)
CNC(=O)c1c(-c2ccc(F)cc2)nc2sc(-c3cc(C(=O)NC(C)(C)c4ncccn4)ccc3C)cn12 | 1000 nM | < 250 nM
CNC(=O)c1c(-c2ccc(F)cc2)nc2sc(-c3cccc(C(=O)NC(C)(C)c4ccccc4)c3)cn12 | < 250 nM | < 250 nM
CNC(=O)c1c(-c2ccc(F)cc2)nc2sc(-c3cccc(C(=O)NC4(c5ccccn5)CC4)c3)cn12 | < 250 nM | < 250 nM
CNC(=O)c1c(-c2ccc(F)cc2)nc2sc(-c3cccc(C(=O)NC4(c5ccccc5)CC4)c3)cn12 | 1000 nM | < 250 nM
CNC(=O)c1c(-c2ccc(F)cc2)nc2sc(-c3cc(C(=O)NC(C)(C)c4ccccc4)ccc3OC)cn12 | < 250 nM | < 250 nM
CNC(=O)c1c(-c2ccc(F)cc2)nc2sc(-c3cc(C(=O)NC(C)(C)c4ccccc4)c(OC)cc3C)cn12 | < 250 nM | < 250 nM
